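The compound was tested at five concentrations on cells cultured in 96-well plates, with a 48-hour exposure period. GI50 is the concentration that inhibits growth by half.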 Active and inactive are the calls of the source. No stated cut-off is given here; in the data, active = GI50 up to about 1.1 µM and inactive = higher.
Experiments:
Test in all cases: NCI-60 cell line screen, 48 h
[1] = tested on: 786-0
[2] = tested on: A498
[3] = tested on: A549
[4] = tested on: ACHN
[5] = tested on: CAKI-1
[6] = tested on: CCRF-CEM
[7] = tested on: COLO 205
[8] = tested on: DLD-1
[9] = tested on: DMS-114
[10] = tested on: DMS-273
[11] = tested on: EKVX
[12] = tested on: HCC 2998
[13] = tested on: HCT-116
[14] = tested on: HCT-15
[15] = tested on: HL-60
[16] = tested on: HOP-62
[17] = tested on: HT-29
[18] = tested on: IGROV-1
[19] = tested on: K562
[20] = tested on: KM-20L2
[21] = tested on: KM12
[22] = tested on: LOX IMVI
[23] = tested on: LXFL 529
[24] = tested on: M14
[25] = tested on: M19-MEL
[26] = tested on: MOLT-4
[27] = tested on: Malme-3M
[28] = tested on: NCI-H226
[29] = tested on: NCI-H23
[30] = tested on: NCI-H460
[31] = tested on: NCI-H522
[32] = tested on: OVCAR-3
[33] = tested on: OVCAR-5
[34] = tested on: OVCAR-8
[35] = tested on: RPMI-8226
[36] = tested on: RXF 393
[37] = tested on: SF-268
[38] = tested on: SF-295
[39] = tested on: SF-539
[40] = tested on: SK-MEL-28
[41] = tested on: SK-MEL-2
[42] = tested on: SK-MEL-5
[43] = tested on: SK-OV-3
[44] = tested on: SN12C
[45] = tested on: SNB-19
[46] = tested on: SNB-75
[47] = tested on: SW-620
[48] = tested on: TK-10
[49] = tested on: U-251
[50] = tested on: UACC-257
[51] = tested on: UACC-62
[52] = tested on: UO-31
[53] = tested on: XF498

## CN1C/C(=C\c2ccco2)c2nc(N)nc(-c3ccco3)c2C1
[1]
  GI50: > 100 µM (inactive)
[2]
  GI50: > 100 µM (inactive)
[3]
  GI50: > 100 µM (inactive)
[4]
  GI50: > 100 µM (inactive)
[5]
  GI50: > 100 µM (inactive)
[6]
  GI50: 74.1 µM (inactive)
[7]
  GI50: > 100 µM (inactive)
[8]
  GI50: > 100 µM (inactive)
[9]
  GI50: > 100 µM (inactive)
[10]
  GI50: 88.1 µM (inactive)
[11]
  GI50: > 100 µM (inactive)
[12]
  GI50: > 100 µM (inactive)
[13]
  GI50: > 100 µM (inactive)
[14]
  GI50: > 100 µM
[15]
  GI50: 52.7 µM (inactive)
[16]
  GI50: > 100 µM (inactive)
[17]
  GI50: 99.8 µM (inactive)
[18]
  GI50: > 100 µM (inactive)
[19]
  GI50: > 100 µM (inactive)
[20]
  GI50: > 100 µM (inactive)
[21]
  GI50: 31.5 µM (inactive)
[22]
  GI50: 60.4 µM (inactive)
[23]
  GI50: 74.1 µM (inactive)
[24]
  GI50: > 100 µM (inactive)
[25]
  GI50: > 100 µM (inactive)
[26]
  GI50: 48.9 µM (inactive)
[27]
  GI50: > 100 µM (inactive)
[28]
  GI50: 34.5 µM (inactive)
[29]
  GI50: > 100 µM (inactive)
[30]
  GI50: > 100 µM (inactive)
[31]
  GI50: > 100 µM (inactive)
[32]
  GI50: 43.9 µM (inactive)
[33]
  GI50: > 100 µM (inactive)
[34]
  GI50: 75.2 µM (inactive)
[35]
  GI50: 31.7 µM (inactive)
[36]
  GI50: > 100 µM (inactive)
[37]
  GI50: > 100 µM (inactive)
[38]
  GI50: > 100 µM (inactive)
[39]
  GI50: > 100 µM (inactive)
[40]
  GI50: > 100 µM (inactive)
[41]
  GI50: > 100 µM (inactive)
[42]
  GI50: 72.8 µM (inactive)
[43]
  GI50: > 100 µM (inactive)
[44]
  GI50: > 100 µM (inactive)
[45]
  GI50: > 100 µM (inactive)
[46]
  GI50: 85.3 µM (inactive)
[47]
  GI50: > 100 µM (inactive)
[48]
  GI50: > 100 µM (inactive)
[49]
  GI50: > 100 µM (inactive)
[50]
  GI50: > 100 µM (inactive)
[51]
  GI50: > 100 µM (inactive)
[52]
  GI50: > 100 µM (inactive)
[53]
  GI50: 23.6 µM (inactive)

— ChEMBL document CHEMBL1201862, “PubChem BioAssay data set” (2004)
